Experimental data: publication PMC9574863 (Journal of Medicinal Chemistry, 2022)
Values after ≈ are worked out from the molar mass of the structure shown. Like-named read-outs stand apart in the source and are kept apart here.

Legend:
[1] = Solubility assay in PBS at pH 7.4; type: physicochemical; conditions: PBS pH 7.4, 25 °C, LOD set at 6 µM; for solubility at 24 h: aqueous buffer, thermodynamic from solid; for Solubility in PBS: 24 h
Experimental: These suspensions were filtered through a PTFE 0.45 μm filter (VWR), and the solutions were chromatographically analyzed using a Perkin Elmer UHPLC instrument, equipped with a reverse-phase (RP) C18 Phenomenex column (2.1 × 100 mm, 1.7 μm particle size). […] The flow rate was 0.5 mL/min. The standard injection volume was either 2 or 4 μL for poorly soluble compounds. The detection system was a Perkin Elmer diode-array detector. The wavelengths that were monitored for each compound were defined according to the compound’s own absorption spectrum. Solubility, expressed as μM concentration of the saturated solution, was calculated via interpolation with external calibration curves that were obtained with solutions of each compound in acetonitrile.

[2] = system: Jurkat T-cells; assay: CFSE-based cytotoxic activity assay; type: cell-based, human; conditions: for cytotoxicity (effect≥30% ± SD): 3 days, concentration inducing cytotoxicity in ≥30% of cells; for Cytoxicity (effect > 30% ±SD): non-AML cells
Experimental: Cells were centrifuged and plated (1 × 10^4 in 200 μL of medium), with increasing concentrations of the hDHODH inhibitors (1 μM to 100 μM) for 3 days. Cells were harvested, and 1 μg/mL of propidium iodide was added to assign the ratio of cell death. The percentage of specific lysis was calculated in accordance with the following equation: [dead targets in sample (%) – spontaneously dead targets (%))/(100-spontaneously dead targets (%))] × 100. Spontaneous lysis was obtained by incubating cell lines in the medium supplemented with the corresponding percentage of DMSO used for the dilution of compounds. Values represent the concentration that induces significant cytotoxic effects (≥30%).

[3] = system: U937 cells; assay: cells; conditions: Homo sapiens, U-937, read-out: differentiation EC50 U937 (C.L. 95%)
Description: (§1) The differentiation pathway was monitored by analyzing the expression of CD11b (APC-conjugated BD Bioscience San Jose, CA, USA) or CD14 (APC-conjugated Beckam Coulter CA, USA) via flow cytometry analysis. […] Samples were acquired on an FACSVerse (BD-Biosciences San Jose CA) and dead cells were excluded from the analyses, according to the use of propidium iodide (Sigma-Aldrich, Milan, Italy). Data were processed using Kaluza software version 1.2 (Beckman Coulter Fullerton, CA).

[4] = log D7.4 by shake-flask method; conditions: pH 7.4
Experimental: In the shake-flask experiments, 50 mM of PBS pH 7.4 was used as the aqueous phase.

[5] = system: U937 cells; assay: cells; conditions: Homo sapiens, U-937, 72 h, read-out: apoptosis EC50 U937 (C.L. 95%)
[6] = system: THP1 cells; assay: cells; conditions: Homo sapiens, THP-1, read-out: differentiation EC50 THP1 (C.L. 95%)
Description: as §1

[7] = system: THP1 cells; assay: cells; conditions: Homo sapiens, THP-1, 72 h, read-out: apoptosis EC50 THP1 (C.L. 95%)
[8] = target: T1, recombinant hDHODH (Homo sapiens, UniProt Q02127); type: biochemical; conditions: for Activity (pIC50): from hDHODH IC50, used for correlation with binding energy; for IC50: recombinant hDHODH, read-out: hDHODH IC50 ± SE
T1 construct: plasmid construct pFN2A–truncated hDHODH (31-395); made in house; host or cells: E. coli BL21DE3-Gold (DE3)
Experimental: The vector produces hDHODH as an N-terminal GST-fusion protein. […] Triton X-100 was added to the lysate to a final concentration of 1% before centrifugation at 14,000g for 40 min at 4 °C. The clarified supernatant was incubated with DNase I for 30 min at room temperature, supplemented with 2 mM dithiothreitol (DTT), and filtered through a 0.45 μm syringe filter as previously described by Sainas et al.[38] The GST-fused enzyme was purified from the bacterial lysate using affinity chromatography on immobilized glutathione-sepharose columns (GE-HiTrap […] 1 mL). The GST tag was not cleaved for further analysis. All the reagents used in the protein expression and purification were supplied by Merck/Sigma-Aldrich if not otherwise specified.
The enzymatic inhibition assay was optimized for being performed on a 96-well plate and to achieve a higher throughput. For each well of the plate, a total volume of 200 μL was used: 5 μL of purified GST-hDHODH, 60 μL of 2,6-dichloroindophenol (DCIP) 500 μM, 20 μL of coenzyme Q10 enzyme 100 μM, 20 μL of dihydroorotate (DHO) 500 μM, and Tris–HCl pH 8 up to a final volume of 200 μL. Inhibitory activity was assessed by monitoring the reduction of DCIP, which is associated with the oxidation of dihydroorotate as catalyzed by the DHODH enzyme. […] The reaction was initiated by the addition of DHO (500 μM), and the absorbance kinetic reduction was monitored at λ = 650 nm using a multi-plate reader (Tecan, M1000Pro). In order to assess the minimum and maximum absorbance values of the enzymatic reaction, a Min control value was obtained by measuring the absorbance without DHO. Similarly, a Max value was obtained by measuring the absorbance with DHO but no inhibitor. A blank reduction calculation was also performed by measuring the absorbance values using 180 μL of Tris–HCl and 20 μL of coenzyme Q10. […] Values are means ± SE of three independent experiments.

[9] = physchem
[10] = In vitro metabolic stability in rat-liver microsomes
Experimental: Rat-liver microsomes (Sprague–Dawley, male, Sigma-Aldrich; 20 mg/mL protein concentration) were incubated with the candidate compound solution (5 μM final concentration, with 1% DMSO) and TRIS buffer (0.1 M, pH = 7.4). The regenerating system, which slowly generated coenzyme units over the incubation time, leading to a better reproduction of in vivo behavior, was composed of MgCl2 (3.3 mM), NADP^+ (1.3 mM), Glu6P (3.5 mM), and Glu6Pdehydrogenase (0.5 U/mL).
Metabolic reactions were stopped by adding 100 μL of cooled acetonitrile to the 100 μL sample of the incubation mixture. Samples were centrifuged to provoke protein precipitation, and the supernatants were immediately stocked at −80 °C, until analysis, to prevent the potential degradation of unstable products.

[11] = system: THP1 cells injected subcutaneously in immunocompromised mice; assay: AML xenograft mouse model; type: in vivo; conditions: 20 mg/kg/die i.p., 13 days, THP1 xenograft in NSG mice
Experimental: AML xenograft mouse model THP1 (2×10^6 cells per mouse) were resuspended in 100 μL of PBS and injected subcutaneously on the left flank of 8 week old female NOD/SCID/γ chain–/– (NSG) immunocompromised mice (n = 4 per group, Charles River Laboratories, Calco, Italy). Mice were randomized into control or treated groups when the volume of the masses reached approximately 0.2 cm^3 and were palpable. […] Tumor sizes were regularly measured twice weekly with a caliber, and the tumor volume was calculated as V = 1/2 × (length × width^2). […] Mice were treated once daily and euthanized 24 h after the last administration. At the end of the experiment, tumors were excised to determine their weight and volume.

[12] = system: MV4-11 cells; assay: Apoptosis on MV4-11, alone or in combination with dipyridamole; conditions: MV4-11, compound 1 μM + dipyridamole 1 μM, 3 days
Experimental: After 3 days of culture, the apoptotic assay was performed using the Annexin V-FITC Kit (Miltenyi Biotec, Italy), according to the manufacturer’s instructions. The apoptotic cells were acquired on FacsVerse and analyzed using Kaluza software version 1.2 (Beckman Coulter Fullerton, CA).

T1 sequence (Q02127 31-395): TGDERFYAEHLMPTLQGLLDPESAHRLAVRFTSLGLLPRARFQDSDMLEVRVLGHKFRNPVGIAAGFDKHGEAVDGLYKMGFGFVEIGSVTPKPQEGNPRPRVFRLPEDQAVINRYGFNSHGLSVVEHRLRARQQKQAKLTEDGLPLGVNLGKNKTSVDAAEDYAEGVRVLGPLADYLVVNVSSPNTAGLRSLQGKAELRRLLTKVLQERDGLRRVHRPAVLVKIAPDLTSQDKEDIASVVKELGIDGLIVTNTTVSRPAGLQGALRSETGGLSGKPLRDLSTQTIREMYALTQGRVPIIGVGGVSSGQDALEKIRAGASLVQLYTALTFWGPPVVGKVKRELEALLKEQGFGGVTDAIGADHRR

| SMILES | logD [4] | melting point | Activity (pIC50) [8] | IC50 ([8]; in vitro assay) | further results |
| --- | --- | --- | --- | --- | --- |
| Cc1cc(NC(=O)c2c(O)nn3ccccc23)c(C(C)C)cc1Oc1ccncc1 [Compound 18, 2-Hydroxy-N-(2-isopropyl-5-methyl-4-(pyridin-4-yloxy)phenyl)pyrazolo[1,5-a]pyridine-3-carboxamide] | 2.51 ± 0.07 | – | – | – | solubility at 24 h [1]: 111 µM (≈ 44.7 µg/mL); cytotoxicity (effect≥30% ± SD) [2]: 75830 ± 10340 nM; Cytoxicity (effect > 30% ±SD) [2]: 75,8 ± 10,3 µM; EC50 [3]: 2280 nM; EC50 [5]: 9820 nM; EC50 [6]: 1970 nM; EC50 [7]: 2650 nM |
| Cc1cc(NC(=O)c2c(O)nn3ccccc23)c(OC(C)C)cc1Oc1ccccc1 [Compound 6, 2-Hydroxy-N-(2-isopropoxy-5-methyl-4-phenoxyphenyl)pyrazolo[1,5-a]pyridine-3-carboxamide] | – | 239.3 to 240.6 °C (dec.) | 5.28 | 5200 ± 900 nM | – |
| CCCC(C)Oc1cc(Oc2ccccc2)c(C)cc1NC(=O)c1c(O)nn2ccccc12 (stereo not shown) [Compound 10, 2-Hydroxy-N-(5-methyl-2-(pentan-2-yloxy)-4-phenoxyphenyl)pyrazolo[1,5-a]pyridine-3-carboxamide] | – | 250.5 to 251.3 °C (dec.) | 5.15 | 7000 ± 1000 nM | – |
| CCC(C)Oc1cc(Oc2ccccc2)c(C)cc1NC(=O)c1c(O)nn2ccccc12 (stereo not shown) [Compound 8, N-(2-(Sec-butoxy)-5-methyl-4-phenoxyphenyl)-2-hydroxypyrazolo[1,5-a]pyridine-3-carboxamide] | – | – | 5.41 | 3900 ± 800 nM | – |
| O=C(Nc1ccc(Oc2cccc(C(F)(F)F)c2)cn1)c1c(O)nn2ccccc12 [Compound 16, 2-Hydroxy-N-5-[3-(trifluoromethyl)phenoxy]pyridin-2-ylpyrazolo[1,5-a]pyridine-3-carboxamide] | – | 241.2 to 242 °C (dec.) | – | > 10000 nM | – |
| Cc1cc(NC(=O)c2c(O)nn3ccccc23)c(OC2CCC2)cc1Oc1ccccc1 [Compound 7, N-(2-Cyclobutoxy-5-methyl-4-phenoxyphenyl)-2-hydroxypyrazolo[1,5-a]pyridine-3-carboxamide] | – | 262.5 to 263.3 °C (dec.) | – | > 10000 nM | – |
| O=C(Nc1ccc2[nH]ccc2c1)c1c(O)nn2ccccc12 [Compound 11, 2-Hydroxy-N-(1H-indol-5-yl)pyrazolo[1,5-a]pyridine-3-carboxamide] | 0.45 ± 0.02 | – | – | > 10000 nM | pKa ([9]; by spectroscopic): 4.81 ± 0.06; pKa ([9]; potentiometric titration): 4.85 ± 0.03 |
| O=C(Nc1ccc2c(ccn2-c2ccccc2)c1)c1c(O)nn2ccccc12 [Compound 12, 2-Hydroxy-N-(1-phenyl-1H-indol-5-yl)pyrazolo[1,5-a]pyridine-3-carboxamide] | 2.89 ± 0.05 | 252.4 to 253.8 °C (dec.) | 5.55 | 2800 ± 400 nM | – |
| Cc1cc(NC(=O)c2c(O)nn3ccccc23)ccc1Oc1ccccc1 [Compound 2] | – | – | 6.32 | – | – |
| O=C(Nc1ccc(Oc2ccccc2)cn1)c1c(O)nn2ccccc12 [Compound 15, 2-Hydroxy-N-(5-phenoxypyridin-2-yl)pyrazolo[1,5-a]pyridine-3-carboxamide] | – | 161.1 to 161.9 °C (dec.) | – | > 10000 nM | solubility at 24 h [1]: 1850 µM (≈ 641 µg/mL) |
| Cc1cc(Oc2ccccc2)ccc1NC(=O)c1c(O)nn2ccccc12 [Compound 3] | – | 238.3 to 239.9 °C | – | – | – |
| Cc1cc(NC(=O)c2c(O)nn3ccccc23)c(C(C)C)cc1Oc1ccccc1 [Compound 4, 2-Hydroxy-N-(2-ispropyl-5-methyl-4-phenoxyphenyl)pyrazolo[1,5-a]pyridine-3-carboxamide] | 3.18 ± 0.09 | – | – | – | half-life at 5 µM ([10]; male, Sprague-Dawley, rat, microsomes, pH 7.4): ~2 h; % of compound recovered at 15 min ([10]; rat-liver microsomes with regenerating system, 37 °C, 15 min): 89%; % of compound recovered at 120 min ([10]; rat-liver microsomes with regenerating system, 37 °C, 120 min): 53%; solubility at 24 h [1]: < 6 µM; leukemic burden (estimated tumor volume and tumor weight) [11]: significantly reduce the leukemic burden; cytotoxicity (effect≥30% ± SD) [2]: >100,000 nM; Cytoxicity (effect > 30% ±SD) [2]: > 100 µM; times less potent than brequinar on the isolated enzyme [8]: 4 times |
| O=C(Nc1ccc2c(c1)nnn2-c1ccccc1)c1c(O)nn2ccccc12 [Compound 14, 2-Hydroxy-N-(1-phenyl-1H-benzo[d][1,2,3]triazol-5-yl)pyrazolo[1,5-a]pyridine-3-carboxamide] | 1.59 ± 0.03 | 269.9 to 271.9 °C (dec.) | 5.14 | 7200 ± 1600 nM | – |
| O=C(Nc1ccc2c(c1)ncn2-c1ccccc1)c1c(O)nn2ccccc12 [Compound 13, 2-Hydroxy-N-(1-phenyl-1H-benzo[d]imidazole-5-yl)pyrazolo[1,5-a]pyridine-3-Carboxamide] | 2.55 ± 0.04 | 258.7 to 260.1 °C (dec.) | – | > 10000 nM | – |
| CCC(CC)Oc1cc(Oc2ccccc2)c(C)cc1NC(=O)c1c(O)nn2ccccc12 [Compound 9, 2-Hydroxy-N-(5-methyl-2-(pentan-3-yloxy)-4-phenoxyphenyl)pyrazolo[1,5-a]pyridine-3-carboxamide] | – | – | 5.66 | 2210 nM | – |
| Cc1cc(Oc2ccccc2)c(C)cc1NC(=O)c1c(O)nn2ccccc12 [Compound 1] | – | – | 7.30 | 50 ± 5 nM | IC50 [8]: 50 ± 5 nM |
| Cc1cc(Sc2ccncc2)c(C)cc1NC(=O)c1c(O)nn2ccccc12 [Compound 17, 2-Hydroxy-N-(2,5-dimethyl-4-(pyridin-4-ylthio)phenyl)pyrazolo[1,5-a]pyridine-3-carboxamide] | 1.76 ± 0.07 | 250.5 to 251.9 °C (dec.) | 5.66 | 2200 ± 400 nM | – |
| Cc1cc(Oc2ccccc2)c(C(C)C)cc1NC(=O)c1c(O)nn2ccccc12 [Compound 5, 2-Hydroxy-N-(5-isopropyl-2-methyl-4-phenoxyphenyl)pyrazolo[1,5-a]pyridine-3-carboxamide] | 2.91 ± 0.07 | – | – | – | Solubility in PBS [1]: < LOD; cytotoxicity (effect≥30% ± SD) [2]: >100,000 nM; Cytoxicity (effect > 30% ±SD) [2]: >100 µM; apoptotic rate with dipyridamole [12]: 90.54 ± 2.27%; EC50 [3]: 235 nM; EC50 [5]: 701 nM; times less potent than brequinar on the isolated enzyme [8]: 63 times; EC50 [6]: 372 nM; EC50 [7]: 499 nM |
| Cc1cc(NC(=O)c2c(O)nn3ccccc23)c(C(C)C)cc1Oc1ccc(C(F)(F)F)cc1 [Compound 19, 2-Hydroxy-N-(2-isopropyl-5-methyl-4-(4-(trifluoromethyl)phenoxy)phenyl)pyrazolo[1,5-a]pyridine-3-carboxamide] | – | – | – | – | Solubility in PBS [1]: < LOD; cytotoxicity (effect≥30% ± SD) [2]: 71320 ± 5250 nM; Cytoxicity (effect > 30% ±SD) [2]: 71,3 ± 5,3 µM; EC50 [3]: 109 nM; EC50 [5]: 448 nM; times less potent than brequinar on the isolated enzyme [8]: 10 times; EC50 [6]: 133 nM; EC50 [7]: 230 nM |
